Laboratory results: PMC7669869, “AdipoR1/AdipoR2 dual agonist recovers nonalcoholic steatohepatitis and related fibrosis via endoplasmic reticulum-mitochondria axis” (Nature Communications, 2020)
Values joined by “and” are separate entries in the source; they are usually repeats but may differ in a detail not shown here. Equal entries are not always repeated. Non-standard residues stand in square brackets, D forms with d. Residues, ends and D or L forms follow the SMILES beside them. Nva = CCC[C@H](N)C(=O)O

Experiments:
[1] = tested on: gene expression in LX2 cells; assay: Quantitative RT-PCR in LX2 cells; assay type: cell-based, human; set-up: key to Vimentin mRNA / CTGF mRNA / OPN mRNA / IL-6 mRNA / TNF mRNA / IL-1 mRNA / TIMP2 mRNA / MMP2 mRNA / MMP9 mRNA / MMP12 mRNA / MMP13 mRNA: relative mRNA expression normalized to β-actin
Protocol: Hepatoma carcinoma cell line HepG2 and human hepatic activated stellate cell line LX2 used in this study were purchased from Type Culture Collection of the Chinese Academy of Sciences (Shanghai, China). Cells were cultured in Dulbecco’s modified Eagle’s medium (DMEM) with 10% fetal bovine serum (FBS), supplemented with 1% penicillin–streptomycin (ThermoFisher Scientific, USA) at 37 °C in a humidified atmosphere of 5% CO2. In PA (Sigma, USA) induced lipid accumulation cell model, HepG2 cells were seeded into a 6-well plate at 5E5 cells per well. 0.25 mM PA and/or 200 μM candidate peptides were co-incubated with cells for 24 h. Then Oil Red O staining was performed to evaluate the accumulation of lipid droplets. BSA (Sigma, USA) was used in this experiment as the negative control. For LX2 cells, 2E5 cells were seeded, then the adherent cells were exposed to 200 μM candidate peptides for another 48 h. Next, the cell protein was obtained and western blotting was performed. Candidate peptides were diluted in DMEM in a stock concentration of 1 M.
Liver total RNA was extracted by using Trizol reagent following the manufacture’s instruction (TransGen Biotech, China). The concentration of RNA was measured by Nanodrop 2000 (ThermoFisher Scientific, USA). cDNA was transcribed from 10ug total RNA with First Strand cDNA synthesis Super Mix (TransGen Biotech, China). The cDNA was diluted 1/50 and 1.0 uL were used as a template for qPCR. qPCR was performed with SYBR Green qPCR Super Mix (TransGen Biotech, China) in the Light Cycler 480 Real-Time PCR System (Roche, Swiss). Reference gene β-actin was used for data normalization. mRNA expression was analyzed with specific primers listed in Supplementary Table 2.

[2] = tested on: liver protein expression of CCl4 induced liver fibrosis mice; assay: CCl4 mice: liver western blot; assay type: in vivo, mouse
Protocol: Male mice liver fibrosis was induced by intraperitoneal injection of 20% CCl4 (Sigma, USA) diluted in corn oil (Aladdin, China) every 3 days for 6 weeks (n = 6; 5 ml kg^−1 body weight). Mice injected with equivalent volume of corn oil serves as control group (n = 6). Liver fibrosis mice treated with JT003 for 3 weeks were used to evaluated the pharmacological effects (n = 6; 500 μg kg^−1; daily intraperitoneal injection).
Total protein was isolated from cells or liver samples using RIPA lysis buffer (50.0 mM Tris-HCl (pH = 8.0), 150.0 mM NaCl, 0.02% NaN3, 0.1% SDS, 1% NP-40, 0.5% deoxysodium cholate, 1 mM EDTA, […]). The protein concentration was quantified with BCA kit (Pierce, ThermoFisher Scientific, USA). Thirty micrograms protein were separated by 10 or 12% sodium dodecyl sulfate-polyacrylamide gel electrophoresis depending on the band of target protein, then transferred onto equilibrated polyvinylidene difluoride membrane (PVDF, Immobilon®-PSQ transfer membranes, Merck Millipore, Germany). Membranes were incubated with primary antibodies overnight at 4 °C. Specific antibodies were listed in Supplementary Table 3. After incubation with the secondary antibody, proteins were detected by enhanced chemiluminescence (Glarity^TM Western ECL Substrate, Bio-Rad, USA) and the signals were recorded and quantified with Tanon-Image Software (Shanghai, China). Reference antibody GAPDH were used for data normalization.

[3] = tested on: AdipoR1 and AdipoR2 on HepG2 and LX2 cells; assay: Cell confocal imaging, receptor binding of FITC labeled peptide (with AdipoR siRNA); set-up: species or system human; details: 37 °C, 2 or 4 h, AdipoR1/AdipoR2 siRNA as control, in words
Protocol: For in vitro receptor binding assay, 4E4 HepG2 cells or 2E4 LX2 cells were seeded on 35 mm glass bottom dish with 150 μL complete medium. Then cells were incubated with FITC labeled peptide for 4 h. The nuclei were stained with Hoechst 33342 (ThermoFisher, Scientific, USA). After washing with PBS, cells were visualized in a laser confocal microscope (Olympus FV3000, Japan). Cells with suppressed AdipoR1 and AdipoR2 expression with each specific siRNA were used as negative control.
AdipoR1 and AdipoR2 siRNA as well as mock siRNA were chemically synthesized (GenePharma, China) and transfected into 60–70% confluent HepG2 and LX2 cells using Lipofectamine 3000 (ThermoFisher Scientific, USA). Dilution of siRNA and Lipofectamine 3000 reagents as well as the transfection of cells were performed following the manufacturer’s protocol. For HepG2 cell model, 5E5 cells were plated in 6-well plates and transfected with 5 μL of 20 μM stock siRNA. At 48 h following transfection, the cells were processed for 0.25 mM PA and/or 200 μM JT003 treated for another 24 h. BSA was used as the negative control. For LX2 cell model, 2E5 cells were plated in 6-well plates and transfected with 5 μL of 20 μM stock siRNA. At 48 h following transfection, the cells were processed for JT003 or PBS treated for another 48 h. Next, cells were harvested for either western blot or qPCR assay.

[4] = Figure 6a left, LX2 cells, JT003 vs Vehicle, single replicates, n = 4
[5] = Figure 6a right, LX2 cells, JT003 vs Vehicle, single replicates, n = 4
[6] = Figure 7e, liver western blot, CCl4 + JT003 group, single replicates, n = 4
[7] = Figure 7f, liver western blot, CCl4 + JT003 group, single replicates, n = 4

SMILES: CCC[C@H](NC(=O)[C@@H]1CCCN1)C(=O)N[C@@H](CC(C)C)C(=O)N[C@@H](Cc1ccc(O)cc1)C(=O)N[C@@H](Cc1ccc(O)cc1)C(=O)N[C@@H](Cc1ccccc1)C(=O)N[C@@H](C)C(N)=O [JT003] (H-P[Nva]LYYFA-NH2)
- MMP2 mRNA [1, 4]: 1.293 and 0.7704 and 1.1819 and 1.0719
- MMP9 mRNA [1, 4]: 2.131 and 1.538 and 2.384 and 1.884
- MMP12 mRNA [1, 4]: 1.826 and 1.7 and 2.413 and 1.763
- MMP13 mRNA [1, 4]: 2.514 and 2.381 and 3.247 and 2.347
- TIMP2 mRNA [1, 4]: 0.8037 and 0.8728 and 0.6883 and 0.7883
- CTGF mRNA [1, 5]: 0.7417 and 0.5541 and 0.6479 and 0.621
- IL-1 mRNA [1, 5]: 0.9119 and 0.6477 and 0.5242 and 0.686
- IL-6 mRNA [1, 5]: 0.6335 and 0.6954 and 0.6645 and 0.66
- OPN mRNA [1, 5]: 0.8619 and 0.7815 and 0.9867 and 0.8941
- TNF mRNA [1, 5]: 0.6949 and 0.8263 and 0.7906 and 0.7334
- Vimentin mRNA [1, 5]: 0.6199 and 0.6972 and 0.6586 and 0.5779
- IL-1a mRNA, relative expression, Supplementary Figure 15a ([1]; JT003 vs Vehicle, replicate 1): 0.9119
- IL-6 mRNA, relative expression, Supplementary Figure 15a ([1]; JT003 vs Vehicle, replicate 1): 1.034
- TNFa mRNA, relative expression, Supplementary Figure 15a ([1]; JT003 vs Vehicle, replicate 1): 0.6949
- iNOS mRNA, relative expression, Supplementary Figure 15a ([1]; JT003 vs Vehicle, replicate 1): 1.242
- IL-1a mRNA, relative expression, Supplementary Figure 15a ([1]; JT003 vs Vehicle, replicate 2): 0.5774
- IL-6 mRNA, relative expression, Supplementary Figure 15a ([1]; JT003 vs Vehicle, replicate 2): 0.932
- TNFa mRNA, relative expression, Supplementary Figure 15a ([1]; JT003 vs Vehicle, replicate 2): 0.8263
- iNOS mRNA, relative expression, Supplementary Figure 15a ([1]; JT003 vs Vehicle, replicate 2): 1.188
- IL-1a mRNA, relative expression, Supplementary Figure 15a ([1]; JT003 vs Vehicle, replicate 3): 0.5946
- IL-6 mRNA, relative expression, Supplementary Figure 15a ([1]; JT003 vs Vehicle, replicate 3): 0.9828
- TNFa mRNA, relative expression, Supplementary Figure 15a ([1]; JT003 vs Vehicle, replicate 3): 0.7606
- iNOS mRNA, relative expression, Supplementary Figure 15a ([1]; JT003 vs Vehicle, replicate 3): 0.8438
- IL-1a mRNA, relative expression, Supplementary Figure 15a ([1]; JT003 vs Vehicle, replicate 4): 0.706
- IL-6 mRNA, relative expression, Supplementary Figure 15a ([1]; JT003 vs Vehicle, replicate 4): 0.9774
- TNFa mRNA, relative expression, Supplementary Figure 15a ([1]; JT003 vs Vehicle, replicate 4): 0.7834
- iNOS mRNA, relative expression, Supplementary Figure 15a ([1]; JT003 vs Vehicle, replicate 4): 0.9516
- HSC activation factors (Vimentin, CTGF, OPN, IL-6, TNFα and IL-1α) ([1]; LX2, 200 μM JT003, in words): significantly suppressed
- expression of ER-mitochondrial function-related markers ([1]; LX2, 200 μM JT003, in words): improved
- expression of genes involved in ECM accumulation (TIMP1) and degradation (MMP9, MMP12, MMP13) ([1]; LX2, 200 μM JT003, in words): notably altered
- inflammation related genes (TNFα, IL-1α, IL-6 and iNOS) ([1]; LX2, 200 μM JT003, in words): suppressed
- NFκB (western blotting) ([2]; CCl4 fibrosis mice, liver, JT003 500 μg kg−1, in words): significantly downregulated
- phosphorylation levels of JNK, eIF2α and PERK ([2]; CCl4 induced fibrosis mice, liver, JT003 500 μg kg−1, in words): decreased phosphorylation levels
- αSMA and COL1α1 (western blot, liver) ([2]; CCl4 mice, JT003 500 μg kg−1, in words): significant downregulation
- pJNK/JNK [2, 6]: 0.7206 and 0.4902 and 0.6285 and 0.438
- pPERK/PERK [2, 6]: 0.5616 and 0.9445 and 0.6641 and 0.5949
- peIF2a/eIF2a [2, 6]: 1.116 and 0.4247 and 0.9192 and 0.3729
- CYP2E1/GAPDH [2, 7]: 1.469 and 1.0581 and 1.298 and 1.11
- PGC1a/GAPDH [2, 7]: 2.2635 and 2.209 and 2.565 and 2.497
- anti-PP65 / anti-P65 western blot quantification ([2]; Figure 6d, liver, CCl4 + JT003 group, single replicates, n = 4): 0.3517 and 0.3717 and 0.2194 and 0.5295
- binding to AdipoRs on the cell membrane (confocal, FITC) [3]: could specifically bind to AdipoR1 and/or AdipoR2 on the cell membrane
